Results as given in paper PMC5704756, “Hydrolysis, polarity, and conformational impact of C-terminal partially fluorinated ethyl esters in peptide models” (Beilstein Journal of Organic Chemistry, 2017).
“And” between values parts separate entries of the source, which are not always exact repeats. Equal values may be shown once. Read-outs that look alike come from different tables or passages of the source. Peptide text beside a SMILES is read from it. * marks the point of attachment. X1 = FC(F)CO*

What was measured:
Type in all cases: physicochemical
[1] = Hydrolytic stability of esters 1–5 in aqueous potassium phosphate buffer, monitored by 1H and 19F NMR; details: for half-life at 0.5 mM: aqueous potassium phosphate buffer; for τ½, min (aq buffer): ester hydrolysis
Text: The kinetic stability of the ester linkage in the aqueous medium is of critical importance, as it further defines the time window for the reactions with the corresponding esters under the biologically relevant conditions of aqueous buffers. Hydrolysis of the C-terminal esters has been fairly well described in the literature, indicating the hydrolysis occurs via a pseudo-first order reaction in a buffered medium assuming that [HO^−] is constant (Equations 1–3): […]
Next, we determined the half-life values following the above mentioned kinetic model for esters 1–5 in aqueous medium at pH 11 and 298 K (Figure 2). […] For the subsequent fluorine atoms, the hydrolysis rate increased by a factor of 3–4 for each appended fluorine atom. […] Extrapolation to pH 8.0 gives a value of 107 ± 28 hours. (This procedure requires multiplication by 1000.) We experimentally determined the half-life of 5 at pH 8 to be 102 ± 2 hours, which agrees well with the extrapolation. The mutual consistency of the values determined with different kinetic modes (minutes at pH 11, days at pH 8) provides a good indication of their accuracy.
Aqueous potassium phosphate buffer (100 mM) at pH 11.0 or 8.0 was mixed with 1:10 (v/v) deuterium oxide to give 550 μL of 91 mM buffer. The analyte 1–5 was added from a 200 mM stock solution in deuterium oxide to give 0.5 mM analyte. The first NMR spectra were collected within 4 min following addition of the analyte. The monitoring was continued by recording ^1H and ^19F NMR spectra at regular time points until >50% hydrolysis. Ambient temperature was maintained at 298 ± 1 K. The decay of the integral intensity of the analyte was quantified by integration. Plotting the logarithm of the intensity versus time delivered the kinetic constant, which was converted to the half-life time (squared correlation coefficient > 0.90). The experiments were performed in triplicate.

[2] = Partitioning between octan-1-ol and water (NMR detection); details: octan-1-ol/water; for logP at 24 h: 298 K, 24 hours partitioning, NMR
Method: To characterize the lipophilicity, esters 1–5 were subjected to 24 hours of partitioning between octan-1-ol and water at 298 K. The resulting partition is illustrated in Figure 3. […] The lipophilicity of 2,2-difluoroethyl derivative 4 is nearly identical to that of parent ethyl ester 2, and the relative difference in the logP from the increase (5 vs 4, ΔlogP = +0.53 ± 0.13) and decrease (3 vs 4, ΔlogP = −0.45 ± 0.13) in the number of fluorine atoms are equivalent to one methyl group difference (2 vs 1, ΔlogP = +0.44 ± 0.08). The amplitude of the change is similar to that reported recently for the corresponding fluorinated ethanols. Importantly, C-terminal esterification maintains a much higher lipophilicity compared with the C-terminal amide 7 (Table 1).
To 4–5 mg analyte, octan-1-ol (1.00 mL) and deionized water (1.00 mL) were added. The mixture was shaken gently at ambient temperature (298 ± 2 K) for 24 hours. Each phase (200 μL) was sampled using identical NMR tubes, and acetonitrile-d3 (300 μL) was added to each sample. The NMR measurements were performed by ^1H or ^19F detection at 298 K using calibrated 90-degree pulses and one-scan experiments in order to ensure complete pre-relaxation. The same acquisition parameters were used for the octan-1-ol and water samples; for processing, only the zero phase was adjusted. The spectra were baseline corrected, and equivalent resonances were integrated. The ratio between the signal intensities was considered as the partitioning constant. The partitioning experiments were performed in triplicate. Subsequent addition of water and octan-1-ol was performed in forward and reverse manner, and the resulting partitioning constants were identical within experimental error.

[3] = Amide rotational thermodynamics and kinetics (trans/cis isomerism) by NMR / EXSY
Text: For 1–5, we found the trans/cis ratios ≈ 5 for all five esters when measured in aqueous medium; the kinetic parameters of the amide rotation were also nearly identical (Table 2). We then noticed that the trans/cis ratios measured for the fluorine-labeled esters 3–5 in nonpolar solvents (such as benzene) were systematically higher relative to the reference compounds 1 and 2. We tested the relative increase in the trans-amide preference ΔΔG as a function of solvent (Equation 4) and found a dependence of this parameter on the dielectric constant, as would be expected from an electrostatic interaction between the polar alkoxy group and the amide moiety (Figure 4).
The amide rotational thermodynamic and kinetic measurements were performed by NMR as described in [50, 68]. The equilibrium ratio between the rotameric states was obtained from the ^1H, ^19F and ^19F{^1H} (inverse-gated decoupling) spectra at 298 K by integration. The kinetics was measured in ^1H and/or ^19F{^1H} z-cross-relaxation experiments at either 310 K (for deuterium oxide samples) or 298 K (for benzene samples). The Jαβ-coupling values were obtained by visual inspection of the α-CH resonances in the ^1H NMR spectra, and the accuracy was defined by the length of the time domain spectrum at approximately 0.3 Hz. The semi-empirical calculations were performed by using the PM6 algorithm from the MOPAC package. DFT geometry optimization of the 5 amide rotamers was performed using B88-PW91 GGA with the DZVP basis set.

[4] = Hydrolysis of C-terminal 2,2-difluoroethyl esters of oligopeptides in buffered deuterium oxide by 19F NMR; details: for τ½ of ester hydrolysis (value in brackets, alternative kinetic model) / τ½ of ester hydrolysis (value outside brackets): buffered deuterium oxide, pH 7.0, 298 K; for τ½ of ester hydrolysis (value in brackets, alternative kinetic model): first (zero) order kinetic model; for τ½ of ester hydrolysis (value outside brackets): Equation 7 (zero order), first (zero) order model; for charge-induced hydrolysis acceleration factor vs 8b: pH 7, 9b, 10b vs 8b
Text: Finally, we tested hydrolytic stability in esterified peptides 8b, 9b and 10b by observing hydrolysis of the ester using ^19F NMR in buffered deuterium oxide (pH 7). We expected pseudo-first order kinetics as for the hydrolysis of esters 1–5 at pH 11. Nonetheless, for the peptide esters 8b, 9b and 10b, the experimental decay (Figure 7) of the ester concentration resembled pseudo-zero order kinetics, which was also observed for another amino acid ester hydrolysis not shown here.
Circular dichroism spectra were recorded in a 1 mm quartz cell at 298 K in methanol (HPLC grade) or aqueous potassium phosphate buffer (50 mM, pH 7.01 at 297 K). The peptide concentration was 100 μM as determined gravimetrically. The mean residue absorption difference Δε was calculated assuming 6 residues for peptides 8a–c, 10a–c and 3 residues for peptides 9a–c. Hydrolysis was measured in deuterium oxide solution of a 150 mM potassium phosphate buffer. The buffer pH 7.01 was adjusted in water at 298 K. It was then lyophilized, then dissolved in deuterium oxide. The peptides were dissolved in the buffer, and the resulting samples were kept at 298 ± 2 K, while the ^19F NMR measurements were conducted at several time points. The starting concentrations of the analytes were 8 mM for 8b, 5 mM for 9b and 2.5 mM for 10b. The half-life was calculated using the first (zero) order kinetic model.

[5] = C6D6, 298 K, EXSY NMR, amide rotation, value is k∙10^3
[6] = D2O, 310 K, EXSY NMR, amide rotation, value is k∙10^3

CC(=O)N1CCC[C@H]1C(=O)OCC(F)(F)F [compound 5, 2,2,2-Trifluoroethyl N-acetylprolinate]
half-life at 0.5 mM ([1]; pH 8, extrapolated from pH 11 value (multiplication by 1000), read-out: half-life, extrapolation to pH 8.0 (converted)): 107 ± 28 h
half-life at 0.5 mM ([1]; pH 8, pH 8, 298 K, read-out: half-life at pH 8, experimentally determined (converted)): 102 ± 2 h
τ½, min (aq buffer) ([1]; pH 8.0, 298 K): 6112 ± 70 min
τ½, min (aq buffer) ([1]; pH 11.0, 298 K, pseudo-first order): 6.4 ± 1.7 min
ΔlogP vs 4 ([2]; relative to compound 4): +0.53 ± 0.13
logP at 24 h [2]: 0.55
Ktrans/cis in C6D6 ([3]; C6D6 (ε 2.27), 298 K, analyte 50 ± 10 mM): 10.04 ± 0.15
k∙10^3 cis→trans in C6D6 [3, 5]: 477 ± 13 s^−1
k∙10^3 trans→cis in C6D6 [3, 5]: 48 ± 2 s^−1
Ktrans/cis in CD2Cl2 ([3]; CD2Cl2 (ε 8.93), 298 K): 7.07±0.11
Ktrans/cis in CD3CN ([3]; CD3CN, 298 K): 5.65±0.05
Ktrans/cis in CD3OD ([3]; CD3OD (ε 32.7), 298 K): 4.49±0.05
Ktrans/cis in CDCl3 ([3]; CDCl3 (ε 4.81), 298 K): 6.65±0.18
Ktrans/cis in D2O ([3]; D2O (ε 80.1), 298 K, analyte 50 ± 10 mM, 1H/19F NMR): 5.48 ± 0.14
k∙10^3 cis→trans in D2O [3, 6]: 35 ± 5 s^−1
k∙10^3 trans→cis in D2O [3, 6]: 6 ± 1 s^−1

CC(=O)N1CCC[C@H]1C(N)=O [compound 7, reference compound]
logP at 24 h [2]: -1.57 ± 0.1

CC(=O)N1CCC[C@H]1C(=O)N1CCC[C@H]1C(=O)N1CCC[C@H]1C(=O)N1CCC[C@H]1C(=O)N1CCC[C@H]1C(=O)N1CCC[C@H]1C(=O)OCC(F)F [peptide 8b, Ac(Pro)6OCH2CHF2] (Ac-PPPPPP-X1)
τ½ of ester hydrolysis (value in brackets, alternative kinetic model) [4]: 139 ± 20 days

CC(=O)N[C@@H](CCCCN)C(=O)N[C@@H](CCCCN)C(=O)N[C@@H](CCCCN)C(=O)OCC(F)F [peptide 9b, Ac(Lys)3OCH2CHF2∙3HCl]
τ½ of ester hydrolysis (value outside brackets) [4]: 5.0 ± 0.3 days and 5.0 ± 0.5 days
τ½ of ester hydrolysis (value in brackets, alternative kinetic model) [4]: 4.5 ± 0.5 days
charge-induced hydrolysis acceleration factor vs 8b [4]: ≈ 30

CC(=O)N[C@@H](CCCCN)C(=O)N[C@@H](CCCCN)C(=O)N[C@@H](CCCCN)C(=O)N[C@@H](CCCCN)C(=O)N[C@@H](CCCCN)C(=O)N[C@@H](CCCCN)C(=O)OCC(F)F [peptide 10b, Ac(Lys)6OCH2CHF2∙6HCl]
τ½ of ester hydrolysis (value outside brackets) [4]: 4.0 ± 0.3 days
τ½ of ester hydrolysis (value in brackets, alternative kinetic model) [4]: 3.7 ± 0.3 days
charge-induced hydrolysis acceleration factor vs 8b [4]: ≈ 30
